Tests used:
Format in all cases: in vivo
[1] = test system: redroot pigweed (Amaranthus retroflexus); experiment: Test C; set-up: key: 0 was no effect; 100 was complete control; conditions: PREEMERGENCE
[2] = test system: cotton (Gossypium hirsutum); experiment: Test C; set-up: key: 0 was no effect; 100 was complete control; conditions: PREEMERGENCE
[3] = test system: eastern black nightshade (Solanum ptycanthum); experiment: Test C; set-up: key: 0 was no effect; 100 was complete control; conditions: PREEMERGENCE
[4] = test system: arrowleaf sida (Sida rhombifolia); experiment: Test C; set-up: key: 0 was no effect; 100 was complete control; conditions: PREEMERGENCE
[5] = test system: ivyleaf morningglory (Ipomoea hederacea); experiment: Test C; set-up: key: 0 was no effect; 100 was complete control; conditions: PREEMERGENCE
[6] = test system: large crabgrass (Digitaria sanguinalis); experiment: Test E pre-/postemergence/post directed
Outline: (§1)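 Greenhouse pots; compound in non-phytotoxic solvent with surfactant, sprayed preemergence within one day of planting, postemergence at two to four leaf stage (three to twenty cm), or post directed to plant base and soil. Visual injury rated 13 to 21 days after application, 0 (none) to 100 (complete control).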

[7] = test system: Spanishneedles (Bidens bipinnata); experiment: Test E pre-/postemergence/post directed
Outline: as §1

[8] = test system: common ragweed (Ambrosia elatior); experiment: Test E pre-/postemergence/post directed
Outline: as §1

[9] = test system: alexandergrass (Brachiaria plantaginea); experiment: Test E pre-/postemergence/post directed
Outline: as §1

[10] = test system: johnson grass (Sorghum halepense); experiment: Test E pre-/postemergence/post directed
Outline: as §1

[11] = test system: bermudagrass (Cynodon dactylon); experiment: Test E pre-/postemergence/post directed
Outline: as §1

[12] = test system: surinam grass (Brachiaria decumbens); experiment: Test E pre-/postemergence/post directed
Outline: as §1

[13] = test system: sandbur (Cenchrus echinatus); experiment: Test E pre-/postemergence/post directed
Outline: as §1

[14] = test system: itchgrass (Rottboellia exaltata); experiment: Test E pre-/postemergence/post directed
Outline: as §1

[15] = test system: wild poinsettia (Euphorbia heterophylla); experiment: Test C; set-up: key: 0 was no effect; 100 was complete control; conditions: PREEMERGENCE
[16] = test system: hairy beggarticks (Bidens pilosa); experiment: Test C; set-up: key: 0 was no effect; 100 was complete control; conditions: PREEMERGENCE
[17] = test system: large crabgrass (Digitaria sanguinalis); experiment: Test C; set-up: key: 0 was no effect; 100 was complete control; conditions: PREEMERGENCE
[18] = test system: barnyardgrass (Echinochloa crus-galli); experiment: Test C; conditions: PREEMERGENCE
[19] = test system: giant foxtail (Setaria faberii); experiment: Test C; set-up: key: 0 was no effect; 100 was complete control; conditions: PREEMERGENCE
[20] = test system: velvetleaf (Abutilon theophrasti); experiment: Test C; set-up: key: 0 was no effect; 100 was complete control; conditions: PREEMERGENCE
[21] = test system: cocklebur (Xanthium strumarium); experiment: Test C; set-up: key: 0 was no effect; 100 was complete control; conditions: PREEMERGENCE

Cc1cnc(-n2ccc(C(F)(F)F)n2)nc1Cn1ccc(C(F)(F)F)n1 [Compound 52]
100: Plant response rating, Redroot pigweed ([1]; Rate 35 g/ha) | Plant response rating, Redroot pigweed ([1]; Rate 70 g/ha) | Plant response rating, Redroot pigweed ([1]; Rate 140 g/ha) | Plant response rating, E. blacknightsh ([3]; Rate 140 g/ha) | Plant response rating, Arrowleaf sida ([4]; Rate 35 g/ha) | Plant response rating, Arrowleaf sida ([4]; Rate 70 g/ha) | Plant response rating, Arrowleaf sida ([4]; Rate 140 g/ha) | Plant response rating, I. morningglory ([5]; Rate 70 g/ha) | Plant response rating, I. morningglory ([5]; Rate 140 g/ha) | Plant response rating, Wild poinsettia ([15]; Rate 140 g/ha) | Plant response rating, Large crabgrass ([17]; Rate 35 g/ha) | Plant response rating, Large crabgrass ([17]; Rate 70 g/ha) | Plant response rating, Large crabgrass ([17]; Rate 140 g/ha) | Plant response rating, Giant foxtail ([19]; Rate 140 g/ha) | Plant response rating, Velvetleaf ([20]; Rate 70 g/ha) | Plant response rating, Velvetleaf ([20]; Rate 140 g/ha)
40: Plant response rating, E. blacknightsh ([3]; Rate 35 g/ha) | Plant response rating, Itchgrass ([14]; POSTEMERGENCE, Rate 250 g/ha) | Plant response rating, Wild poinsettia ([15]; Rate 70 g/ha) | Plant response rating, Barnyardgrass ([18]; Rate 70 g/ha) | Plant response rating, Barnyardgrass ([18]; Rate 140 g/ha)
10: Plant response rating, Alexandergrass ([9]; POSTEMERGENCE, Rate 125 g/ha) | Plant response rating, Sandbur ([13]; PREEMERGENCE, Rate 64 g/ha)
70: Plant response rating, Cotton ([2]; Rate 140 g/ha) | Plant response rating, Bermudagrass ([11]; PREEMERGENCE, Rate 32 g/ha) | Plant response rating, Surinam grass ([12]; PREEMERGENCE, Rate 64 g/ha) | Plant response rating, Itchgrass ([14]; PREEMERGENCE, Rate 64 g/ha) | Plant response rating, Giant foxtail ([19]; Rate 35 g/ha) | Plant response rating, Velvetleaf ([20]; Rate 35 g/ha)
50: Plant response rating, Com. ragweed ([8]; POSTEMERGENCE, Rate 125 g/ha) | Plant response rating, Johnsongrass ([10]; PREEMERGENCE, Rate 64 g/ha) | Plant response rating, Sandbur ([13]; PREEMERGENCE, Rate 125 g/ha)
80: Plant response rating, E. blacknightsh ([3]; Rate 70 g/ha) | Plant response rating, Large crabgrass ([6]; POSTEMERGENCE, Rate 250 g/ha) | Plant response rating, Com. ragweed ([8]; POSTEMERGENCE, Rate 250 g/ha) | Plant response rating, Com. ragweed ([8]; PREEMERGENCE, Rate 64 g/ha) | Plant response rating, Surinam grass ([12]; PREEMERGENCE, Rate 125 g/ha) | Plant response rating, Itchgrass ([14]; PREEMERGENCE, Rate 125 g/ha)
20: Plant response rating, Spanishneedles ([7]; PREEMERGENCE, Rate 32 g/ha) | Plant response rating, Spanishneedles ([7]; PREEMERGENCE, Rate 64 g/ha) | Plant response rating, Alexandergrass ([9]; PREEMERGENCE, Rate 32 g/ha) | Plant response rating, Johnsongrass ([10]; POSTEMERGENCE, Rate 250 g/ha) | Plant response rating, Cocklebur ([21]; Rate 140 g/ha)
85: Plant response rating, Giant foxtail ([19]; Rate 70 g/ha)
60: Plant response rating, Spanishneedles ([7]; POSTEMERGENCE, Rate 250 g/ha) | Plant response rating, Sandbur ([13]; POSTEMERGENCE, Rate 250 g/ha)
35: Plant response rating, Spanishneedles ([7]; PREEMERGENCE, Rate 125 g/ha) | Plant response rating, Com. ragweed ([8]; PREEMERGENCE, Rate 32 g/ha) | Plant response rating, Johnsongrass ([10]; POSTEMERGENCE, Rate 125 g/ha) | Plant response rating, Bermudagrass ([11]; POSTEMERGENCE, Rate 125 g/ha) | Plant response rating, Bermudagrass ([11]; POSTEMERGENCE, Rate 250 g/ha) | Plant response rating, Itchgrass ([14]; POSTEMERGENCE, Rate 125 g/ha) | Plant response rating, Itchgrass ([14]; PREEMERGENCE, Rate 32 g/ha)
75: Plant response rating, Alexandergrass ([9]; POSTEMERGENCE, Rate 250 g/ha) | Plant response rating, Alexandergrass ([9]; PREEMERGENCE, Rate 64 g/ha) | Plant response rating, Alexandergrass ([9]; PREEMERGENCE, Rate 125 g/ha) | Plant response rating, Johnsongrass ([10]; PREEMERGENCE, Rate 125 g/ha) | Plant response rating, Surinam grass ([12]; POSTEMERGENCE, Rate 125 g/ha) | Plant response rating, Surinam grass ([12]; POSTEMERGENCE, Rate 250 g/ha)
30: Plant response rating, Surinam grass ([12]; PREEMERGENCE, Rate 32 g/ha) | Plant response rating, H. beggarticks ([16]; Rate 140 g/ha) | Plant response rating, Barnyardgrass ([18]; Rate 35 g/ha)
5: Plant response rating, I. morningglory ([5]; Rate 35 g/ha) | Plant response rating, Large crabgrass ([6]; POSTEMERGENCE, Rate 125 g/ha) | Plant response rating, Sandbur ([13]; POSTEMERGENCE, Rate 125 g/ha)
0: Plant response rating, Cotton ([2]; Rate 35 g/ha) | Plant response rating, Cotton ([2]; Rate 70 g/ha) | Plant response rating, H. beggarticks ([16]; Rate 35 g/ha) | Plant response rating, H. beggarticks ([16]; Rate 70 g/ha) | Plant response rating, Cocklebur ([21]; Rate 70 g/ha)
65: Plant response rating, Spanishneedles ([7]; POSTEMERGENCE, Rate 125 g/ha)
98: Plant response rating, Large crabgrass ([6]; PREEMERGENCE, Rate 32 g/ha)
90: Plant response rating, Bermudagrass ([11]; PREEMERGENCE, Rate 64 g/ha)
